According to US4311791A, “Automated kinetic determination of lactate dehydrogenase isoenzymes in serum” (priority 1980, dated 1982):

Columns and labels:
LD from human heart [1] = molecular target: T1, LD from human heart (Homo sapiens, UniProt P07195); assay: Inhibition of LD activity in human heart extract by high pyruvate, without preincubation (present method); type: biochemical
T1 construct: Human tissue extracts were prepared by sonic disruption; from tissue; host or cells: human heart, crude extract (sonicated, supernatant of centrifugation)
T1 sequence (P07195 2-334): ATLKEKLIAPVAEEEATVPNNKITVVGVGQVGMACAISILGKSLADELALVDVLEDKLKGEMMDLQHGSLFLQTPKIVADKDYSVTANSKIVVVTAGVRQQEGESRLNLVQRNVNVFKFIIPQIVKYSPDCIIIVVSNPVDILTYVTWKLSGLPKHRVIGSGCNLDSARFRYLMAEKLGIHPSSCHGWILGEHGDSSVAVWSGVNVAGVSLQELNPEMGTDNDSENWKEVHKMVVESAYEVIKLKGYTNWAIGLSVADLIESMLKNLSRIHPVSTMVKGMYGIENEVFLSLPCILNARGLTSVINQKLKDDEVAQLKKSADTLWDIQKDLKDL
Procedure: (§1) Preparation of tissue. Human tissue extracts were prepared by sonic disruption (at 4° l C. for 1 min.) of 1 g (wet weight) of tissue in 9 ml of potassium phosphate buffer (0.1 mol/liter, pH 7.0). The homogenates were centrifuged at 4° C. at 5×10^4 g for 10 min.; and the superiors were promptly examined for LD activity and stored at -80° C.
(§2) Assay for total LD activity. The measurements were at 340 nm and 25° C. in a Model 240 (Gilford Instrument, Oberlin, Ohio 44074) digital kinetic spectrophotometer when manual determinations were needed to supply data for calibration curves with purified enzymes or with tissue extracts, and for serum assays in the preliminary stages of developing the method. Sera were assayed at 25° C. in a centrifugal analyzer (GEMSAEC; Electronucleonics, Inc., Fairfield, N.J. 07006) after the optimum conditions were known to be suitable for manual determinations. For automated determinations 500 ul of pyruvate reaction mixture and 50 ul of serum (an 11-fold dilution of the serum) were required. Conditions for measuring total LD activity were: 0.34 mmol of pyruvate and 0.13 mmcl of NADH per liter of the phosphate buffer. The molar absorptivity 6.22×10^3 liter mol^-1 cm^-1 for NADH was used in calculating enzyme activity in IUB units.
(§3) Kinetic determination of isoenzymes. LD's are inhibited by their substrate, the H-type LD being inhibited by pyruvate to a greater extent than the M-type LD. This inhibition, related to the formation of an abortive ternary complex, was the basis of the method that has been used to distinguish the heart enzyme from the muscle enzyme after preincubation. […]

LD from human liver [2] = molecular target: T2, LD from human liver (Homo sapiens, UniProt P00338); assay: Inhibition of LD activity in human liver extract by high pyruvate, without preincubation (present method); type: biochemical
T2 construct: Human tissue extracts were prepared by sonic disruption; from tissue; host or cells: human liver, crude extract (sonicated, supernatant of centrifugation)
Procedure: as §1, §2, §3

chicken heart LD = chicken heart LD (Gallus gallus, UniProt P00337); assay: Inhibition of chicken heart LD by pyruvate; type: biochemical; conditions: 3.4 mmol/liter pyruvate
Sequence of chicken heart LD (P00337 whole entry): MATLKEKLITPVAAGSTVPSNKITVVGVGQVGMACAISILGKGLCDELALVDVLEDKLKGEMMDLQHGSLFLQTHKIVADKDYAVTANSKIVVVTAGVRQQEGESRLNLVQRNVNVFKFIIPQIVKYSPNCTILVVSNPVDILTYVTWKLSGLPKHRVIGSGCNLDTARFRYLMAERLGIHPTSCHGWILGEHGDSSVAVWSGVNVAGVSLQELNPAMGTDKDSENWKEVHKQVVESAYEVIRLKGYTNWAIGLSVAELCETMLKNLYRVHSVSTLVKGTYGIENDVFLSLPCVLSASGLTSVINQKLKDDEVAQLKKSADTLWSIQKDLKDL
Procedure: as §2
(§4) Assay conditions. Studies of the pH dependence of the inhibition of chicken heart LD at an initial substrate concentration of 3.4 mmol/liter pyruvate (control rate, 0.1 absorbance unit change per minute at 0.34 mmol/liter pyruvate) indicated the pH for maximum inhibition of LD activity to be pH 7, although pH 6.5 was also suitable for the inhibition. […]

rabbit muscle LD = assay: Activity/inhibition of crystalline rabbit muscle LD at high pyruvate; type: biochemical
Procedure: as §2, §4

LD from human kidney [3] = assay: Inhibition of human kidney LD, present method; type: biochemical; conditions: mean ± 2 SD, at least seven sources
Procedure: as §1, §2
(§5) Kinetic determination of isoenzymes. […]

LD from human brain [4] = assay: Inhibition of human brain LD, present method; type: biochemical; conditions: mean ± 2 SD, at least seven sources
Procedure: as §1, §2, §5

LD from human spleen [5] = assay: Inhibition of human spleen LD, present method; type: biochemical; conditions: mean ± 2 SD, at least seven sources
Procedure: as §1, §2, §5

LD from human muscle [6] = assay: Inhibition of human muscle LD, present method; type: biochemical; conditions: mean ± 2 SD, at least seven sources
Procedure: as §1, §2, §5

H-type LD = assay: Kinetic determination of isoenzymes: inhibition of human H-type LD without preincubation; type: biochemical; conditions: 5 mmol pyruvate and 0.13 mmol NADH per liter, phosphate buffer pH 7.0
Procedure: (§6) Kinetic determination of isoenzymes. LD's are inhibited by their substrate, the H-type LD being inhibited by pyruvate to a greater extent than the M-type LD. This inhibition, related to the formation of an abortive ternary complex, was the basis of the method that has been used to distinguish the heart enzyme from the muscle enzyme after preincubation.
(§7) Conditions for inhibiting the human LD activity without any preincubation were: 5 mmol of pyruvate and 0.13 mmol of NADH per liter of 100 l mmol/liter potassium phosphate buffer, pH 7.0.

M-type LD = assay: Kinetic determination of isoenzymes: inhibition of human M-type LD without preincubation; type: biochemical; conditions: 5 mmol pyruvate and 0.13 mmol NADH per liter, phosphate buffer pH 7.0
Procedure: as §6, §7

LD from human heart [7] = molecular target: T1, LD from human heart; conditions: previously reported, mean ± 2 SD; cited from earlier work
LD from human liver [8] = molecular target: T2, LD from human liver; conditions: previously reported, mean ± 2 SD; cited from earlier work
LD from human kidney [9] = conditions: previously reported, mean ± 2 SD; cited from earlier work
LD from human brain [10] = conditions: previously reported, mean ± 2 SD; cited from earlier work
LD from human spleen [11] = conditions: previously reported, mean ± 2 SD; cited from earlier work
LD from human muscle [12] = conditions: previously reported, mean ± 2 SD; cited from earlier work
[13] = present method, mean ± 2 SD, at least seven sources

Structure (SMILES): CC(=O)C(=O)[O-].[Na+] [pyruvate, Sodium pyruvate]
- Percent inhibition, Heart (LD from human heart [1]; 5 mmol/liter pyruvate, pH 6): 90%
- Percent inhibition, Heart (LD from human heart [1]; 5 mmol/liter pyruvate, pH 7): 69%
- Percent inhibition, Heart (LD from human heart [1]; 5 mmol/liter pyruvate, pH 8): 40%
- Percent inhibition, Heart (LD from human heart [1]; 10 mmol/liter pyruvate, pH 6): 91%
- Percent inhibition, Heart (LD from human heart [1]; 10 mmol/liter pyruvate, pH 7): 79%
- Percent inhibition, Heart (LD from human heart [1]; 10 mmol/liter pyruvate, pH 8): 50%
- Percent inhibition, Present method, Heart (LD from human heart [1]; [13]): 60.8 ± 10.8%
- Percent inhibition, Liver (LD from human liver [2]; 5 mmol/liter pyruvate, pH 6): 53%
- Percent inhibition, Liver (LD from human liver [2]; 5 mmol/liter pyruvate, pH 7): 20%
- Percent inhibition, Liver (LD from human liver [2]; 5 mmol/liter pyruvate, pH 8, negative sign = increased rate): -19%
- Percent inhibition, Liver (LD from human liver [2]; 10 mmol/liter pyruvate, pH 6): 65%
- Percent inhibition, Liver (LD from human liver [2]; 10 mmol/liter pyruvate, pH 7): 50%
- Percent inhibition, Liver (LD from human liver [2]; 10 mmol/liter pyruvate, pH 8, negative sign = increased rate): -14%
- Percent inhibition, Present method, Liver (LD from human liver [2]; [13]): 17.6 ± 11.8%
- pH for maximum inhibition of LD activity (chicken heart LD): 7
- inhibition of chicken heart LD (chicken heart LD; pH 8 and above): no inhibition was seen
- reaction rate, % of the maximum velocity (rabbit muscle LD; 3.4 mmol/liter pyruvate): 114%
- inhibition of rabbit muscle LD (rabbit muscle LD; 10 mmol/liter pyruvate): 2%
- Percent inhibition, Present method, Kidney (LD from human kidney [3]): 53.1 ± 5.0%
- Percent inhibition, Present method, Brain (LD from human brain [4]): 50.6 ± 8.4%
- Percent inhibition, Present method, Spleen (LD from human spleen [5]): 43.5 ± 9.0%
- Percent inhibition, Present method, Muscle (LD from human muscle [6]): 16.1 ± 11.8%
- inhibition of the H-type LD (H-type LD): more than 50%
- inhibition of the M-type LD (M-type LD): slight inhibition
- Percent inhibition, Preincubation method, Heart (LD from human heart [7]): 61.1 ± 8.3%
- Percent inhibition, Preincubation method, Liver (LD from human liver [8]): 18.3 ± 10.0%
- Percent inhibition, Preincubation method, Kidney (LD from human kidney [9]): 53.0 ± 15.1%
- Percent inhibition, Preincubation method, Brain (LD from human brain [10]): 59.0 ± 6.6%
- Percent inhibition, Preincubation method, Spleen (LD from human spleen [11]): 41.3 ± 8.5%
- Percent inhibition, Preincubation method, Muscle (LD from human muscle [12]): 17.3 ± 12.2%
